According to article PMC12505902, “Inhibitors of trehalose-6-phosphate synthase activity in fungal pathogens compromise thermal tolerance pathways” (mBio, 2025):

Tested on: C. neoformans WT H99
Assay: C. neoformans capsule assay (India Ink)
Type: cell-based
Settings: 0.1, 0.5 and 1 mM 4456dh, 72 hours at 30°C, dose-dependent
Procedure: Fig 5 4456dh treatment results in reduced trehalose accumulation and a decrease in Tps1-dependent virulence factors. Trehalose accumulation measurements for C. albicans (A) and C. neoformans (B) cultured at indicated temperatures in the absence or presence of 0.5 mM 4456dh. Trehalose was measured using a colorimetric glucose assay after treatment of cultures with trehalase. Statistical comparisons were done with a one-way analysis of variance (ANOVA) analysis followed by a post hoc Tukey’s test. Error bars represent SE. (C) C. albicans WT strain SC5314 cells were treated with 0.5 mM, 1.0 mM, and 5 mM 4456dh. Untreated C. albicans WT cells and the C. albicans tps1Δ/tps1Δ deletion strain were included in this experiment as positive and negative controls, respectively. Increasing concentrations of 4456dh negatively affect filamentation in C. albicans in YPD plus 10% fetal bovine serum incubated at 37°C for 2 hours. Representative images from two independent experiments are shown. The scale bars represent 10 microns. (D) Analysis of capsule formation in C. neoformans WT H99 using India Ink counter-staining in cells treated with 0.1 mM, 0.5 mM, and 1 mM 4456dh. […] Cells were harvested, stained in India Ink, and analyzed using differential interference contrast imaging. […]
190 (Zeiss). The size of the capsule of > 100 cells per 4456dh treatment was quantified using Image […]

With `Cn1cc(-c2csc(NC(=O)Cc3ccccn3)n2)cn1` [Compound 4456dh] the capsule production was “capsule production was affected”.
